In ChEMBL document CHEMBL4715876 (J Med Chem, 2020):
Values after ≈ are worked out from the molar mass of the structure shown. Blank lines part the entries; values can stand above or below the compound they belong to.

What was measured:
[1] = Tmax in BALB/C mouse at 10 mg/kg, po measured upto 24 hrs by LC-MS analysis; format: ADME, organism-based; conditions: in vivo
[2] = Cmax in BALB/C mouse at 10 mg/kg,po measured upto 24 hrs by LC-MS analysis; format: ADME, organism-based; parameters: route oral, dose 10 mg/kg, time <= 24; conditions: in vivo
[3] = AUClast in BALB/C mouse at 10 mg/kg,po measured upto 24 hrs by LC-MS analysis; format: ADME, organism-based; parameters: route oral, dose 10 mg/kg, time <= 24; conditions: in vivo
[4] = Oral bioavailability in BALB/C mouse at 10 mg/kg measured upto 24 hrs by LC-MS analysis; format: ADME, organism-based; conditions: in vivo
[5] = Tmax in BALB/C mouse at 1 mg/kg, iv measured upto 24 hrs by LC-MS analysis; format: ADME, organism-based; conditions: in vivo
[6] = Cmax in BALB/C mouse at 1 mg/kg, iv measured upto 24 hrs by LC-MS analysis; format: ADME, organism-based; parameters: route intravenous, dose 1 mg/kg, time <= 24; conditions: in vivo
[7] = AUClast in BALB/C mouse at 1 mg/kg, iv measured upto 24 hrs by LC-MS analysis; format: ADME, organism-based; parameters: route intravenous, dose 1 mg/kg, time <= 24; conditions: in vivo
[8] = Volume of distribution at steady state in BALB/C mouse at 1 mg/kg, iv measured upto 24 hrs by LC-MS analysis; format: ADME, organism-based; conditions: in vivo, read-out: Vdss
[9] = Lipophilicity, log D of compound at pH 7.4; format: physicochemical; conditions: buffer
[10] = Solubility of the compound; format: physicochemical
[11] = Tmax in Sprague-Dawley rat at 10 mg/kg, po measured upto 24 hrs by LC-MS/MS analysis; format: ADME, organism-based; conditions: in vivo
[12] = Cmax in Sprague-Dawley rat at 10 mg/kg, po measured upto 24 hrs by LC-MS/MS analysis; format: ADME, organism-based; parameters: route oral, dose 10 mg/kg, time <=24; conditions: in vivo
[13] = AUClast in Sprague-Dawley rat at 10 mg/kg, po measured upto 24 hrs by LC-MS/MS analysis; format: ADME, organism-based; parameters: route oral, dose 10 mg/kg, time <=24; conditions: in vivo
[14] = Oral bioavailability in Sprague-Dawley rat at 10 mg/kg measured upto 24 hrs by LC-MS/MS analysis; format: ADME, organism-based; conditions: in vivo
[15] = Drug uptake in CB.17 SCID mouse tumor xenografted with OCI-LY10 cells at 3 mg/kg, po once daily for 24 days; format: ADME, organism-based, Neoplasm; conditions: time 24 day, read-out: Drug uptake
[16] = Drug uptake in CB.17 SCID mouse tumor xenografted with OCI-LY10 cells at 1 mg/kg, po once daily for 24 days; format: ADME, organism-based, Neoplasm; conditions: time 24 day, read-out: Drug uptake
[17] = Drug uptake in CB.17 SCID mouse tumor xenografted with OCI-LY10 cells at 10 mg/kg, po once daily for 24 days; format: ADME, organism-based, Neoplasm; conditions: time 24 day, read-out: Drug uptake
[18] = Drug uptake in CB.17 SCID mouse tumor xenografted with OCI-LY10 cells at 30 mg/kg, po once daily for 24 days; format: ADME, organism-based, Neoplasm; conditions: time 24 day, read-out: Drug uptake
[19] = Plasma concentration in CB.17 SCID mouse xenografted with OCI-LY10 cells at 3 mg/kg, po once daily for 24 days; format: ADME, organism-based; conditions: time 24 day
[20] = Plasma concentration in CB.17 SCID mouse xenografted with OCI-LY10 cells at 1 mg/kg, po once daily for 24 days; format: ADME, organism-based; conditions: time 24 day
[21] = Plasma concentration in CB.17 SCID mouse xenografted with OCI-LY10 cells at 10 mg/kg, po once daily for 24 days; format: ADME, organism-based; conditions: time 24 day
[22] = Plasma concentration in CB.17 SCID mouse xenografted with OCI-LY10 cells at 30 mg/kg, po once daily for 24 days; format: ADME, organism-based; conditions: time 24 day
[23] = Drug uptake in CB.17 SCID mouse tumor xenografted with TMD-8 cells at 3 mg/kg, po once daily for 19 days; format: ADME, organism-based, Neoplasm; conditions: time 19 day, read-out: Drug uptake
[24] = Drug uptake in CB.17 SCID mouse tumor xenografted with TMD-8 cells at 1 mg/kg, po once daily for 19 days; format: ADME, organism-based, Neoplasm; conditions: time 19 day, read-out: Drug uptake
[25] = Drug uptake in CB.17 SCID mouse tumor xenografted with TMD-8 cells at 10 mg/kg, po once daily for 19 days; format: ADME, organism-based, Neoplasm; conditions: time 19 day, read-out: Drug uptake
[26] = Drug uptake in CB.17 SCID mouse xenografted with TMD-8 cells tumor at 30 mg/kg, po once daily for 19 days; format: ADME, organism-based, Neoplasm; conditions: time 19 day, read-out: Drug uptake
[27] = Plasma concentration in CB.17 SCID mouse xenografted with TMD-8 cells at 3 mg/kg, po once daily for 19 days; format: ADME, organism-based; conditions: time 19 day
[28] = Plasma concentration in CB.17 SCID mouse xenografted with TMD-8 cells at 1 mg/kg, po once daily for 19 days; format: ADME, organism-based; conditions: time 19 day
[29] = Plasma concentration in CB.17 SCID mouse xenografted with TMD-8 cells at 10 mg/kg, po once daily for 19 days; format: ADME, organism-based; conditions: time 19 day
[30] = Plasma concentration in CB.17 SCID mouse xenografted with TMD-8 cells at 30 mg/kg, po once daily for 19 days; format: ADME, organism-based; conditions: time 19 day
[31] = Drug uptake in CB.17 SCID mouse tumor xenografted with SUDHL-6 cells assessed as effect on body weight at 5 mg/kg, po once daily for 15 days; format: ADME, organism-based, Neoplasm; conditions: time 15 day, read-out: Drug uptake
[32] = Plasma concentration in CB.17 SCID mouse tumor xenografted with SUDHL-6 cells assessed as effect on body weight at 5 mg/kg, po once daily for 15 days; format: ADME, organism-based; conditions: time 15 day
[33] = Free drug concentration in CB.17 SCID mouse xenografted with OCI-LY10 cells at 30 mg/kg, po once daily for 24 days; format: ADME, organism-based; conditions: in vivo, 576 h, time 24 day
[34] = Free drug concentration in CB.17 SCID mouse xenografted with TMD-8 cells at 30 mg/kg, po once daily for 19 days; format: ADME, organism-based; conditions: in vivo, 456 h, time 19 day
[35] = Volume of distribution at steady state in Beagle dog at 1 mg/kg, iv measured upto 24 hrs by LC-MS/MS analysis; format: ADME, organism-based, Canis lupus familiaris; conditions: beagle, in vivo, read-out: Vdss
[36] = Tmax in Sprague-Dawley rat at 1 mg/kg, iv measured upto 24 hrs by LC-MS/MS analysis; format: ADME, organism-based; conditions: in vivo
[37] = Cmax in Sprague-Dawley rat at 1 mg/kg, iv measured upto 24 hrs by LC-MS/MS analysis; format: ADME, organism-based; parameters: route intravenous, dose 1 mg/kg, time <=24; conditions: in vivo
[38] = AUClast in Sprague-Dawley rat at 1 mg/kg, iv measured upto 24 hrs by LC-MS/MS analysis; format: ADME, organism-based; parameters: route intravenous, dose 1 mg/kg, time <=24; conditions: in vivo
[39] = Volume of distribution at steady state in Sprague-Dawley rat at 1 mg/kg, iv measured upto 24 hrs by LC-MS/MS analysis; format: ADME, organism-based; conditions: in vivo, read-out: Vdss

Tmax [1]: 60 min
Cmax [2]: 7500 nM
AUC(0-t) at 24 h [3]: 22 µM·h
bioavailability [4]: 39%
Tmax [5]: 4.8 min
Cmax [6]: 2300 nM
AUC(0-t) at 24 h [7]: 5.7 µM·h
Vd [8]: 0.7 L/kg
logD [9]: 2.38
solubility [10]: 68.5 µM (≈ 34.9 µg/mL)
Tmax [11]: 120 min
Cmax [12]: 4800 nM
AUC(0-t) at 24 h [13]: 36 µM·h
bioavailability [14]: 33%
concentration at 576 h [15]: 380 nM
concentration at 576 h [16]: 130 nM
concentration at 576 h [17]: 960 nM
concentration at 576 h [18]: 3250 nM
concentration at 576 h [19]: 710 nM
concentration at 576 h [20]: 180 nM
concentration at 576 h [21]: 1720 nM
concentration at 576 h [22]: 5220 nM
concentration at 456 h [23]: 630 nM
concentration at 456 h [24]: 170 nM
concentration at 456 h [25]: 1650 nM
concentration at 456 h [26]: 4080 nM
concentration at 456 h [27]: 700 nM
concentration at 456 h [28]: 210 nM
concentration at 456 h [29]: 2670 nM
concentration at 456 h [30]: 5500 nM
Drug uptake(free) [33]: 157.6 nM
Drug uptake(free) [34]: 166.1 nM
Vd [35]: 0.4 L/kg
Tmax [36]: 4.8 min
Cmax [37]: 1700 nM
AUC(0-t) at 24 h [38]: 11 µM·h
Vd [39]: 1 L/kg
Structure (SMILES): C[C@H](Nc1nc(N)nc(N)c1C#N)c1c(-c2ccccc2)c(=O)n2cc(F)ccc2c1-c1ccc(F)cc1
concentration at 360 h [31]: 200 nM
concentration at 360 h [32]: 380 nM

Tmax [1]: 30 min
Cmax [2]: 2100 nM
AUC(0-t) at 24 h [3]: 2.4 µM·h
bioavailability [4]: 30%
Tmax [5]: 4.8 min
Cmax [6]: 1300 nM
AUC(0-t) at 24 h [7]: 0.8 µM·h
Vd [8]: 1.7 L/kg
Structure (SMILES): Cc1c([C@H](C)Nc2nc(N)nc(N)c2C#N)c(-c2ccccc2)c(=O)n2cc(F)ccc12
